From ChEMBL document CHEMBL5365451, “Discovery of CVN417, a Novel Brain-Penetrant α6-Containing Nicotinic Receptor Antagonist for the Modulation of Motor Dysfunction” (J Med Chem, 2023)
Activity calls are given as the source filed them. The calls are words filed in the database; no cut-off is given here.

Assays:
[1] = target: T1, D(4) dopamine receptor (Homo sapiens) (UniProt P21917); assay: Antagonist activity at human D4 receptor relative to control; format: functional; set-up: scale not given: the % may be the effect or the level left; conditions: filed as antagonist
T1 sequence (whole entry): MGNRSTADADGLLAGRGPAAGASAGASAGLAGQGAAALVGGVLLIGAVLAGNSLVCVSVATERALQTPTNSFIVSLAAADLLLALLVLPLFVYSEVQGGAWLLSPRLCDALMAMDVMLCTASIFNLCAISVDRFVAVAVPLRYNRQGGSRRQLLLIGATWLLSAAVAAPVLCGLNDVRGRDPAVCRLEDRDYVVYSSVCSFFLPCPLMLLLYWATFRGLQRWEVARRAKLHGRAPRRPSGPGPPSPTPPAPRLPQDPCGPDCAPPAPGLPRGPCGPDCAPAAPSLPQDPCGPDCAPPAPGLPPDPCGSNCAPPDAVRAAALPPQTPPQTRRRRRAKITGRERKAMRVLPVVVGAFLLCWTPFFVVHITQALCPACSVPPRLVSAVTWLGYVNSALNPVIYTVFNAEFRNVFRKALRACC

[2] = Antagonist activity at human alpha6-alpha3/beta2/beta3 V273S mutant nAChR expressed in HEK293 cells assessed as nicotine-induced intracellular calcium release incubated for 15 mins by FLIPR analysis; format: cell-based; conditions: HEK293, 0.25 h
[3] = target: Neuronal acetylcholine receptor; alpha3/beta4 (Homo sapiens, UniProt P30926+P32297); assay: Antagonist activity at human alpha3/beta4 nAChR expressed in HEK293 cells assessed as nicotine-induced intracellular calcium release incubated for 15 mins by FLIPR analysis; format: cell-based
Neuronal acetylcholine receptor; alpha3/beta4, sequence (P30926 whole entry): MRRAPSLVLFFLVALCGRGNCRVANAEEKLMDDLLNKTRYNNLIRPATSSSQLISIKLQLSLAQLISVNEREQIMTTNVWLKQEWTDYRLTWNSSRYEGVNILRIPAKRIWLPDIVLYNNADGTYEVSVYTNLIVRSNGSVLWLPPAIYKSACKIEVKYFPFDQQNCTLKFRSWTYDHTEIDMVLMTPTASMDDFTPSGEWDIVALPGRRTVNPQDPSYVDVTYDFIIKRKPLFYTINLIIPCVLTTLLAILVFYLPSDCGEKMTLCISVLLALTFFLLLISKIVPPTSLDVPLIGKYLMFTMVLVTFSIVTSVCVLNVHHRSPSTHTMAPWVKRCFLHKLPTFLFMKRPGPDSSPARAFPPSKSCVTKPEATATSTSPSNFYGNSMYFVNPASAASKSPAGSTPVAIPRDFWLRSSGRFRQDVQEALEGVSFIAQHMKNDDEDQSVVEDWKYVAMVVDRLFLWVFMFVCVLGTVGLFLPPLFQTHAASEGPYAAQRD
Neuronal acetylcholine receptor; alpha3/beta4, sequence (P32297 whole entry): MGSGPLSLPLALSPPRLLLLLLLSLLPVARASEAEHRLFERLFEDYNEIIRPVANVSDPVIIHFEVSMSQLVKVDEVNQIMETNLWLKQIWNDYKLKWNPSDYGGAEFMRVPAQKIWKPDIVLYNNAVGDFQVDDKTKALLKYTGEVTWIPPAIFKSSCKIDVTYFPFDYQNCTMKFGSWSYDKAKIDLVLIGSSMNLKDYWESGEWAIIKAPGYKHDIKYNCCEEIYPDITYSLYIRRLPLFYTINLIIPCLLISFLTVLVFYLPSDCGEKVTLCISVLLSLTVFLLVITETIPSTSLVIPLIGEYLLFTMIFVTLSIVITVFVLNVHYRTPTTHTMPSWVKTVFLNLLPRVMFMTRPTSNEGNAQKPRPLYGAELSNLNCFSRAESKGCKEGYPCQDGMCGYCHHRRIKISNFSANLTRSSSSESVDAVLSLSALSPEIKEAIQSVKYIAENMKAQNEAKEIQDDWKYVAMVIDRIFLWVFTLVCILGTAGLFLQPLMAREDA

[4] = target: Neuronal acetylcholine receptor; alpha4/beta2 (Homo sapiens, UniProt P17787+P43681); assay: Antagonist activity at human alpha4/beta2 nAChR expressed in HEK293 cells assessed as nicotine-induced intracellular calcium release incubated for 15 mins by FLIPR analysis; format: cell-based
Neuronal acetylcholine receptor; alpha4/beta2, sequence (P17787 whole entry): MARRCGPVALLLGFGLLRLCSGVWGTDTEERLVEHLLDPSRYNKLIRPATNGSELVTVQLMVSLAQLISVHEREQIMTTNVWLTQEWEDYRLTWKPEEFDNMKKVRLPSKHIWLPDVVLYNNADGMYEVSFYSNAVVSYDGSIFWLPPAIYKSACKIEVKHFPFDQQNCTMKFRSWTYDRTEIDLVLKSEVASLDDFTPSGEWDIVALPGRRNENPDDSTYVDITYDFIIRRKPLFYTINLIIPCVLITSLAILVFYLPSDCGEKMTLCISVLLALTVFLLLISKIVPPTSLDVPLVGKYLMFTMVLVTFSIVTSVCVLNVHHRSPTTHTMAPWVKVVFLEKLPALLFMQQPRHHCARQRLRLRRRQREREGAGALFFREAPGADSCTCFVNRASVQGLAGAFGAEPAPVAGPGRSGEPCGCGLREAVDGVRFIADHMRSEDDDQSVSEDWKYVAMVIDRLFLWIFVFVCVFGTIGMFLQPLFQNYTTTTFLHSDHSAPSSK
Neuronal acetylcholine receptor; alpha4/beta2, sequence (P43681 whole entry): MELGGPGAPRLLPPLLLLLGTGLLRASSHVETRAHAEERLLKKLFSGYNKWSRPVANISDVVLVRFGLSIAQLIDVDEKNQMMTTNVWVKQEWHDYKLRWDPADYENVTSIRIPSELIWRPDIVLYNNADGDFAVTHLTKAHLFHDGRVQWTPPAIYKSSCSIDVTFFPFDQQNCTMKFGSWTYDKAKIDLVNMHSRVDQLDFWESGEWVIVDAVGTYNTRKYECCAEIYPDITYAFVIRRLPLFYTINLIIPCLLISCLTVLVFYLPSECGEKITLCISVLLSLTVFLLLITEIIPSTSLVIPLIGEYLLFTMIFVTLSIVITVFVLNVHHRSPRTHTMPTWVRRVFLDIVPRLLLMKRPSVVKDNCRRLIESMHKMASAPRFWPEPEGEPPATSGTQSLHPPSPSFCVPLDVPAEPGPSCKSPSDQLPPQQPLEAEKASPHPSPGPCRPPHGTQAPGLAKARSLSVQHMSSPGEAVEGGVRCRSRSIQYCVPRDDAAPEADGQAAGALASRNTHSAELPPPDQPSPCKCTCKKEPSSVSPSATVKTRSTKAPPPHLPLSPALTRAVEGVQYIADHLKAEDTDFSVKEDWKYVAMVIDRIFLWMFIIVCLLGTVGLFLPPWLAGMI

[5] = Volume of distribution at steady state in Sprague-Dawley rat at 0.5 mg/kg, iv by LC-MS/MS analysis; format: ADME, organism-based; conditions: in vivo, read-out: Vdss
[6] = Drug exposure in Sprague-Dawley rat brain at 3 mg/kg, po measured for 2 hrs by LC-MS/MS analysis; format: ADME, organism-based; conditions: read-out: Drug uptake
Rattus norvegicus [7] = assay: Protection against tacrine-induced po dosed Sprague-Dawley rat tremulous jaw model assessed as decrease in tremor duration pretreated with compound for 90 mins followed by tacrine addition and measured after 5 mins; format: functional, organism-based; conditions: dose 3-25 mg/kg, time 95.0 min
Rattus norvegicus [8] = assay: Protection against tacrine-induced Sprague-Dawley rat tremulous jaw model assessed as decrease in tremor jaw movement at 3 to 25 mg/kg, po pretreated with compound for 90 mins followed by tacrine addition and measured after 5 mins; format: functional, organism-based; conditions: dose 3-25 mg/kg, time 95.0 min
Rattus norvegicus [9] = assay: Protection against tacrine-induced Sprague-Dawley rat tremulous jaw model assessed as decrease in tremor jaw movement at 25 mg/kg, po pretreated with compound for 90 mins followed by tacrine addition and measured after 5 mins; format: functional; set-up: scale not given: the % may be the effect or the level left; conditions: time 95 min, 1.583 h
Brain = assay: Drug concentration in po dosed Sprague-Dawley rat brain measured after 2 hrs by LC-MS/MS analysis; format: functional, organism-based; conditions: dose 3-25 mg/kg
[10] = Metabolic stability in human liver microsome assessed as intrinsic clearance preincubated for 60 mins followed by NADPH addition and measured after 60 mins by LC-MS/MS analysis; format: ADME; conditions: liver microsomes, time 120 min, read-out: CLH
[11] = Metabolic stability in rat liver microsome assessed as intrinsic clearance preincubated for 60 mins followed by NADPH addition and measured after 60 mins by LC-MS/MS analysis; format: ADME; conditions: liver microsomes, time 120 min, read-out: CLH
[12] = Metabolic stability in mouse liver microsome assessed as intrinsic clearance preincubated for 60 mins followed by NADPH addition and measured after 60 mins by LC-MS/MS analysis; format: ADME; conditions: liver microsomes, time 120 min, read-out: CLH
[13] = Metabolic stability in dog liver microsome assessed as intrinsic clearance preincubated for 60 mins followed by NADPH addition and measured after 60 mins by LC-MS/MS analysis; format: ADME, Canis lupus familiaris; conditions: liver microsomes, time 120 min, read-out: CLH
[14] = Metabolic stability in rat hepatocytes assessed as intrinsic clearance measured per 10^6 cells; format: ADME, cell-based, Hepatocyte
[15] = Metabolic stability in mouse hepatocytes assessed as intrinsic clearance measured per 10^6 cells; format: ADME, cell-based, Hepatocyte
[16] = Metabolic stability in dog hepatocytes assessed as intrinsic clearance measured per 10^6 cells; format: ADME, cell-based, Canis lupus familiaris, Hepatocyte
[17] = Metabolic stability in human hepatocytes assessed as intrinsic clearance measured per 10^6 cells; format: ADME, cell-based, Hepatocyte
[18] = Clearance in Sprague-Dawley rat at 0.5 mg/kg, iv by LC-MS/MS analysis; format: ADME, organism-based; conditions: in vivo
[19] = AUC (0 to infinity) in Sprague-Dawley rat at 0.5 mg/kg, iv by LC-MS/MS analysis; format: ADME, organism-based; set-up: dose 0.5 mg/kg, route iv; conditions: in vivo
[20] = Cmax in Sprague-Dawley rat at 10 mg/kg, po by LC-MS/MS analysis; format: ADME, organism-based; set-up: dose 10 mg/kg, route po; conditions: in vivo
[21] = AUC (0 to infinity) in Sprague-Dawley rat at 10 mg/kg, po by LC-MS/MS analysis; format: ADME, organism-based; set-up: dose 10 mg/kg, route po; conditions: in vivo
[22] = Oral bioavailability in Sprague-Dawley rat at 10 mg/kg by LC-MS/MS analysis; format: ADME, organism-based; conditions: in vivo
[23] = Half life in Sprague-Dawley rat at 10 mg/kg, po by LC-MS/MS analysis; format: ADME, organism-based; conditions: in vivo
[24] = Ratio of drug concentration in Sprague-Dawley rat brain to plasma assessed as unbound fraction at 10 mg/kg, po measured after 6 hrs by LC-MS/MS analysis; format: ADME, organism-based; conditions: read-out: K(p,uu,brain)
[25] = Volume of distribution at steady state in Sprague-Dawley rat at 1 mg/kg, iv by LC-MS/MS analysis; format: ADME, organism-based; conditions: in vivo, read-out: Vdss
[26] = AUC (0 to infinity) in Sprague-Dawley rat at 1 mg/kg, iv by LC-MS/MS analysis; format: ADME, organism-based; set-up: dose 1 mg/kg, route iv; conditions: in vivo
[27] = Oral bioavailability in Sprague-Dawley rat at 3 mg/kg by LC-MS/MS analysis; format: ADME, organism-based; conditions: in vivo
[28] = Half life in Sprague-Dawley rat at 3 mg/kg, po by LC-MS/MS analysis; format: ADME, organism-based; conditions: in vivo
[29] = Plasma protein binding in human assessed as unbound fraction by rapid equilibrium dialysis; format: ADME, cell-free
[30] = Plasma protein binding in rat assessed as unbound fraction by rapid equilibrium dialysis; format: ADME, cell-free
[31] = Plasma protein binding in mouse assessed as unbound fraction by rapid equilibrium dialysis; format: ADME, cell-free
[32] = Protein binding in rat brain assessed as unbound fraction by rapid equilibrium dialysis; format: ADME, tissue-based
[33] = Protein binding in mouse brain assessed as unbound fraction by rapid equilibrium dialysis; format: ADME, tissue-based
Rattus norvegicus [34] = organism: Rattus norvegicus; assay: Antagonist activity at rat I2 receptor relative to control; set-up: scale not given: the % may be the effect or the level left; conditions: filed as antagonist
[35] = target: T2, Sodium-dependent noradrenaline transporter (Homo sapiens, UniProt P23975); assay: Binding affinity to human NET relative to control
T2 sequence (P23975 whole entry): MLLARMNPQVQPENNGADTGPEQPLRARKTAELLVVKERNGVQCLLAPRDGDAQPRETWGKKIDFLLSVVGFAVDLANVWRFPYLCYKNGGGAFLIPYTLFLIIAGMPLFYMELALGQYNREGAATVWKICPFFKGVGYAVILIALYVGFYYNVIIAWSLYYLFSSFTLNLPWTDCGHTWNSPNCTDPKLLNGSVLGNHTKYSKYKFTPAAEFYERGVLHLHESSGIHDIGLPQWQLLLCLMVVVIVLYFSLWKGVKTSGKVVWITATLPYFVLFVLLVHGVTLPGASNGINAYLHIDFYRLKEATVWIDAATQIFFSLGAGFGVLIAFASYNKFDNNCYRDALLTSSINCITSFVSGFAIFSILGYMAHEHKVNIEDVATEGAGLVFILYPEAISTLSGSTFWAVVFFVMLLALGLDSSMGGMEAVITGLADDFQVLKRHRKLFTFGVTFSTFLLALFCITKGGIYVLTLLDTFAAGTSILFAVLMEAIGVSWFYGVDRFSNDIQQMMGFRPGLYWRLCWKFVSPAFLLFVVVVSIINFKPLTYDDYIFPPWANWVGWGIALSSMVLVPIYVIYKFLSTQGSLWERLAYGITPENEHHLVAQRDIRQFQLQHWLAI

[36] = target: Sigma non-opioid intracellular receptor 1 (Cavia porcellus) (UniProt Q60492); assay: Agonist activity at guinea pig sigma 1 relative to control; conditions: filed as agonist
Sigma non-opioid intracellular receptor 1 (Cavia porcellus), sequence (Q60492 whole entry): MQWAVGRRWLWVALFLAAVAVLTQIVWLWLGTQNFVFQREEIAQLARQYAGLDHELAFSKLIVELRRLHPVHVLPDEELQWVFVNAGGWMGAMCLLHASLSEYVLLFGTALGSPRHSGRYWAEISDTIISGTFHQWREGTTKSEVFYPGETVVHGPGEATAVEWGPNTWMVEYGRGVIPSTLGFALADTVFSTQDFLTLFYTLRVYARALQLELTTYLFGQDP

[37] = target: Neuronal acetylcholine receptor subunit alpha-7 (Homo sapiens) (UniProt P36544); assay: Antagonist activity at human alpha7 nAChR at 10 uM relative to control; set-up: scale not given: the % may be the effect or the level left
Neuronal acetylcholine receptor subunit alpha-7 (Homo sapiens), sequence (P36544 whole entry): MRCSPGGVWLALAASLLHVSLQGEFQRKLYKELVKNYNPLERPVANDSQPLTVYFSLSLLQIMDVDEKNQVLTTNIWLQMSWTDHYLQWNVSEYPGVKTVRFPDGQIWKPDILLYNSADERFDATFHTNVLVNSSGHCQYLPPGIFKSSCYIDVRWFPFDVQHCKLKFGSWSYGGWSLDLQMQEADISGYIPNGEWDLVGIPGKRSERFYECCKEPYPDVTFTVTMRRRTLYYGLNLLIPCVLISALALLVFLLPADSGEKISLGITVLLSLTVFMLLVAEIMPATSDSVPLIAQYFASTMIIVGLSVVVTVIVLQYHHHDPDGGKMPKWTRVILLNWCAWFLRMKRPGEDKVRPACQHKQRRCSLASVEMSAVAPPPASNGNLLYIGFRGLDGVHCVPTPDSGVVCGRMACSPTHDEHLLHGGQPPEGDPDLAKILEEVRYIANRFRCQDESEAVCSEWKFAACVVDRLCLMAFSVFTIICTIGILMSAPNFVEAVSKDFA

[38] = target: T2, Sodium-dependent noradrenaline transporter; assay: Binding affinity to human NET
D(4) dopamine receptor = target: T3, D(4) dopamine receptor (Homo sapiens, UniProt P21917); assay: Antagonist activity at human D4 receptor; format: functional
T3 sequence (P21917 whole entry): T1 sequence (whole entry)

Rattus norvegicus [39] = organism: Rattus norvegicus; assay: Anti-parkinson activity in Sprague-Dawley rat model assessed as decrease in spontaneous firing frequency measured after 15 mins by whole cell patch assay; format: functional, organism-based
Mus musculus [40] = organism: Mus musculus; assay: Anti-parkinson activity in C57BL6/J mouse model assessed as reduction in Ip induced DA release in striatum in presence of DHbetaE by fast-scan cyclic voltammetry analysis; format: functional, organism-based
Mus musculus [41] = organism: Mus musculus; assay: Anti-parkinson activity in C57BL6/J mouse model assessed as reduction in Ip induced DA release in striatum by fast-scan cyclic voltammetry analysis; format: functional, organism-based
Mus musculus [42] = organism: Mus musculus; assay: Anti-parkinson activity in C57BL6/J mouse model assessed as reduction in 5p 50 Hz induced DA release in striatum by fast-scan cyclic voltammetry analysis; format: functional, organism-based
Mus musculus [43] = organism: Mus musculus; assay: Anti-parkinson activity in C57BL6/J mouse model assessed as reduction in 10p 50 Hz induced DA release in striatum by fast-scan cyclic voltammetry analysis; format: functional, organism-based

SMILES: COc1ccc(-c2cc(C(=O)N[C@H]3CCCN(C)C3)nn2C)c(Cl)c1
- Activity [1]: 90%
- IC50 [2]: 86 nM
- IC50 [3]: 2560 nM
- IC50 [4]: 657 nM
- Vd [5]: 12.3 L/kg
- concentration at 2 h [6]: 1820 nM
- Activity (Rattus norvegicus [7]): Dose-Dependent Effect
- Activity (Rattus norvegicus [8]): Active
- Activity (Rattus norvegicus [9]): 18.9%
- Drug uptake (Brain): Dose-Dependent Effect
- microsomal CLint [10]: 2.8 µL/min/mg
- microsomal CLint [11]: 31.2 µL/min/mg
- microsomal CLint [12]: 33.3 µL/min/mg
- microsomal CLint [13]: 27.7 µL/min/mg
- CLint [14]: 20.8 µL/min/1e6 cells
- CLint [15]: 25.1 µL/min/1e6 cells
- CLint [16]: 32.3 µL/min/1e6 cells
- CLint [17]: 3.7 µL/min/1e6 cells
- clearance [18]: 38.2 mL/min/kg
- AUC(0-inf) [19]: 205 ng·h/mL
- Cmax [20]: 350 nM
- AUC(0-inf) [21]: 775 ng·h/mL
- bioavailability [22]: 11%
- half-life [23]: 5.9 h
- Kp uu at 6 h [24]: 1.4
- Vd [25]: 11.4 L/kg
- AUC [26]: 13.5 ng·h/mL
- bioavailability [27]: 43.8%
- half-life [28]: 7.8 h
- fraction unbound [29]: 0.3
- fraction unbound [30]: 0.202
- fraction unbound [31]: 0.25
- fraction unbound [32]: 0.068
- fraction unbound [33]: 0.053
- Activity (Rattus norvegicus [34]): 84%
- Activity [35]: 62%
- Activity [36]: 51%
- Activity [37]: 13%
- IC50 [38]: 44700 nM
- IC50 (D(4) dopamine receptor): 1290 nM
- Activity (Rattus norvegicus [39]): Active
- Activity (Mus musculus [40]): Active
- Activity (Mus musculus [41]): Active
- Activity (Mus musculus [42]): Active
- Activity (Mus musculus [43]): Active
